Here are results for 1 compound from patent US20060029576A1, “Biological control of pythium disease in crops” (HER MAJESTY THE QUEEN IN RIGHT OF CANADA, THE MINISTER OF …, priority 2004, published 2006).

Holding throughout (format): in vivo
Assay [1] relates to Pythium spp. (predominantly Pythium sp. ‘group G’). The assay is described as follows: Seed treatment of field pea cv. Trapper, damping-off field experiment 2004. As to conditions: for Plant Height (cm): 6-node stage (4 weeks after planting). As to the method: (§1) The strains of Rhizobium leguminosarum bv. viceae used for the study were 99A1, R12, R20, and R21. Strain 99A1 was originated from the commercial pea inoculant produced by Agrium, Inc. Calgary, Alberta. Bacterial cultures were grown on tryptone-yeast agar (TYA) (Beringer, 1974) in Petri dishes for 48 h at room temperature (20±2° C.). The resulting colonies were suspended in 5 ml per dish of 1% methyl cellulose (Sigma-Aldrich, Milwaukee, Wis.) in sterile distilled water, and scraped gently with a spatula to obtain bacterial slurries. Seeds of field pea cv. Trapper and lentil cv. Laird were soaked for 20 minutes in the slurries, spread on a metallic mesh sheet with paper towel underneath to absorb the excess slurry, and air-dried overnight under a fume hood. Enumeration of bacteria coated onto seeds was done by placing 5 seeds in a test tube with 5 ml of sterile distilled water, vortexing for 30 sec, and plating serial dilutions on TYA, 0.1 ml per 9-cm dish. After incubation at room temperature for 3 days, bacterial colonies developed in each dish were counted. There were two replicates for each treatment.
(§2) Field experiments were conducted at the Agriculture and Agri-Food Canada Research Centre near Lethbridge, Alberta, Canada, in a field naturally infested with Pythium spp. (predominantly Pythium sp. ‘group G’). For the pea experiment, seeds were planted using a plot seeder on 28 May 2004, in 4-row plots with a row length of 5 m, a row spacing of 22.5 cm, and a plant spacing of 5 cm (i.e. 20 seeds/m). Untreated seeds and fungicide-treated seeds (Thiram™ at the rate of 30 g/25 kg seed) (Gustafson; Calgary, Alberta, Canada) were used as controls. Treatments were arranged in a randomized block design with 6 replicates. For the lentil experiment, seeds were planted on the same date and using the same parameters as for field pea.
(§3) Seedling emergence for each plot was determined. The number of healthy seedlings and the number of wilted seedlings were counted in the middle 3 m of each row, and the percent loss due to pre-emergent and post-emergent damping-off were calculated, as well as the final stand establishment. The causal agent of seedling death was determined by collecting 10 non-emerged seedlings and all of the wilted seedlings from each plot, washing in running water, surface sterilizing in 70% ethanol for 90 sec, incubating on potato dextrose agar (PDA) in Petri dishes at room temperature for 7 days, and examining the organisms derived from each sample. Results of reisolation of diseased seedlings were used to calculate the incidence of damping-off due to Pythium spp. for each plot.
(§4) Seedling height for each plot was determined (6-node stage for peas; 5-node stage for lentils). For each row, ten seedlings were randomly selected and the distance from the first node to the terminal branch of each seedling was measured.
(§5) Differences between treatments for incidence of damping-off, seedling emergence and seedling height data were analyzed for statistical significance using analysis of variance (ANOVA) and means of treatments for each set of data were separated using Duncan's multiple range test at the P=0.05 level. All statistical analyses were done using SAS Statistical Analysis Software, Version 8.2 (SAS Institute Inc., Cary, N.C. 2001).

The subject of assay [2] is Pythium spp. Briefly: Seed treatment of field pea, field naturally infested with Pythium spp. (2001 field experiments). To be noted: 4 weeks after planting. As to the method:
(§6) The selected strains of R. leguminosarum bv. viceae (R12, R20, and R21) effective against Pythium damping-off of sugar beet in indoor experiments were tested for control of damping-off of sugar beet and field pea in fields naturally infested with Pythium spp. at the Lethbridge Research Centre, Alberta. […] (Bardin et al. 2003). The seeds were coated with the bacterial slurry as described previously using 2.4 and 9.5 mL bacterial slurry/100 seeds of sugar beet and field pea, respectively. The seeds were dried overnight at room temperature on a metallic mesh, which was placed on a paper towel to absorb the excess slurry. The number of bacteria coated onto the seeds was similar for the four bacterial strains, ranging from 1.4×10^6±0.2×10^6 to 2.3×10^7±0.2×10^7 cfu/seed for sugar beets and 3.0×10^7±0.3×10^7 to 1.2×10^8±0.4×10^8 cfu/seed for field peas. The coated seeds were then stored at 4° C. until planting. Bacterial counts on the seeds were determined by vortexing five coated seeds in 5 mL of distilled sterile water for 30 seconds, and by plating serial dilutions on TY agar medium in Petri dishes for Rhizobium strains and on PDA in Petri dishes for P. fluorescens. […] Seedling emergence was recorded 4 weeks after planting and was compared with the uninoculated and fungicide controls. […]

Assay [3] concerns Pythium spp. Briefly: Seed treatment of sugar beet, field naturally infested with Pythium spp. (2001 field experiments). As to conditions: 4 weeks after planting. The method, then:
as §6

Assay [4] has as its system Pythium spp. (predominantly Pythium sp. ‘group G’). The assay is described as follows: Seed treatment of lentil cv. Laird, damping-off field experiment 2004. The method, then: as §1, §2, §3, §4, §5

In the case of `CN(C)C(=S)SSC(=S)N(C)C` [Thiram], the “Plant Height (cm)” value worked out at 14.6 cm in assay [1] (control 11.1); 14.6 c cm in assay [1] (control 11.1, listed as Fungicide (Thiram)); 11.4 a cm in assay [4] (5-node stage (4 weeks after planting), control 11.2). The “Damping-off (%) Post-emergent” value in assay [1] (control 0.2) turned out to be 0.6%; in assay [4] (control 2.7), 2.6%. Besides, the “Final Stand (%)” value in assay [1] (control 37.8) stood at 79.1 c %; in assay [4] (control 51.0), 63.2 d %. For the same compound, the “Damping-off (%) by Pythium” value in assay [1] (control 55.4, listed as Fungicide (Thiram)) is on record as 16.7 c %; in assay [1] (control 55.4, listed as fungicide), 16.7%; in assay [4] (control 35.3, listed as Fungicide (Thiram)) it was 22.8 d %; in assay [4] (control 35.3, listed as fungicide), 22.8%. Further, the “Damping-off (%) Pre-emergent” value in assay [1] (control 62.0) amounted to 20.3%; in assay [1] (control 62.0, listed as Fungicide (Thiram)), 20.3 c %; in assay [4] (control 46.3), 34.2%; in assay [4] (control 46.3, listed as Fungicide (Thiram)), 34.2 c %. Also, the “Emergence (%) Pea (Pisum sativum) August 2001” value with Pythium spp. [2] (untreated control 12.8) came to 48.3a %. The “Emergence (%) Pea (Pisum sativum) May 2001” value with Pythium spp. [2] (untreated control 41.4) is 71.4a %. In the assay with Pythium spp. [3] (untreated control 6.5), the “Emergence (%) Sugar beet (Beta vulgaris) August 2001” value worked out at 27.0a %. In addition, the “Emergence (%) Sugar beet (Beta vulgaris) May 2001” value in the assay with Pythium spp. [3] (untreated control 10.0) was found to be 28.6a %.
